The target of the assay is T1, TLR8 (Homo sapiens, UniProt Q9NR97).
T1 construct: host or cells: HEK293 (HEK-BLUE-hTLR8)
T1 sequence (Q9NR97 27-1041): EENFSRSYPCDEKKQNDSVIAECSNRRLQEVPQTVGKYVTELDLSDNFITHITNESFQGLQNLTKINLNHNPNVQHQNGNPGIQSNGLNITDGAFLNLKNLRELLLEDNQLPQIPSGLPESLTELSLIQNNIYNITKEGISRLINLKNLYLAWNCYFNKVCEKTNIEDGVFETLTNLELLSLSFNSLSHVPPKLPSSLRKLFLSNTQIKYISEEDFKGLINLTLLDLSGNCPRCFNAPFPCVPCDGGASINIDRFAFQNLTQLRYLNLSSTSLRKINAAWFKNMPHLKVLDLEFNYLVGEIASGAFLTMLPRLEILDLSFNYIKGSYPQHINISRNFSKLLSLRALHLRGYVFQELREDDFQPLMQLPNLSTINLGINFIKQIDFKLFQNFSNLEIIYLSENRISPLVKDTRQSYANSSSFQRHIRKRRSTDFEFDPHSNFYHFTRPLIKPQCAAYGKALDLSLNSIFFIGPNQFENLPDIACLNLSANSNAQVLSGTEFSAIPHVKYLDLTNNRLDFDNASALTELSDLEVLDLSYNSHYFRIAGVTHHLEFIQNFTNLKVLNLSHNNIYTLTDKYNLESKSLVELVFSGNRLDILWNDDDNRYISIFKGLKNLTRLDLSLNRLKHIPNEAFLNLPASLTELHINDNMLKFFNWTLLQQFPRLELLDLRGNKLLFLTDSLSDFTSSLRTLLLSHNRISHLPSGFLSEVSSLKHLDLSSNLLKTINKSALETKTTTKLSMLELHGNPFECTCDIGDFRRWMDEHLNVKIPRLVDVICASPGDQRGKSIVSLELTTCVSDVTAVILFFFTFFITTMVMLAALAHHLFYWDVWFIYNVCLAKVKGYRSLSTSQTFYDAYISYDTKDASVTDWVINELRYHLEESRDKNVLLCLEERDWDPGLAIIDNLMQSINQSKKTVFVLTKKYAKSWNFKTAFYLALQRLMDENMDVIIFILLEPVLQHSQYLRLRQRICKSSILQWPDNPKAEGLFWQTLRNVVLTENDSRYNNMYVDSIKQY
The assay is described as follows: HEK-BLUE-hTLR8 cell SEAP reporter assay (Quanti-Blue). The following applies: HEK-BLUE-hTLR8 cells, 0.5 nM to 15 µM, 24 hours. Format: cell-based. Here is the method:
In this experiment, the biological activity of TLR7 and TLR8 in the compound of formula I was detected using cell tests. This method was conducted in human embryonic kidney cells (HEK293) expressing TLR family members such as TLR4, TLR7, TLR8 or TLR9. TLR agonists activate TLRs, triggering the activation of downstream NF-kB, which in turn activates the secreted embryonic alkaline phosphatase (SEAP) reporter gene. The activity of SEAP was detected using the Quanti-Blue (InvivoGen) reagent, thereby reflecting the activities of TLR7 and TLR8 agonists.
The detailed experimental method was as follows: HEK-BLUE-hTLR7 and HEK-BLUE-hTLR8 cell lines were purchased from Invivogen Company and cultured in DMEM medium containing 4.5 g/L glucose (Sigma-Aldrich) and 10% fetal bovine serum under the conditions of temperature 37°C, humidity 95% and 5% CO2.
The compound was tested at a concentration ranging from 0.5 nM to 15 µM over a total of 10 concentration gradients. TLR7 or TLR8 agonists with known activity were added as positive controls, and 1 µL of DMSO was added as a negative control.
The cells were treated as follows: the cells were removed from the culture dish and centrifuged to remove the medium, and resuspended in a T-150 bottle with 10 mL of preheated PBS, 12 mL of preheated medium was added, and the cells were gently pipetted up and down and counted under a microscope. A 200,000/mL single-cell suspension was immediately prepared with medium and added to a 96-well plate at 200 µL/well (40,000/well). The final concentration of DMSO was 0.5%.
The compound was added and incubated in an incubator at 37°C, 5% CO2 for 24 hours.
A supernatant at 20 µL/well was aspirated into 180 µL of preheated Quanti-Blue at 37°C, incubated at 37°C for 1.5 hours, and detected for the absorbance (OD value) with a spectrophotometer at 650 nm. The formula for calculating the agonistic effect is as follows:
Effect % = (average OD value of the drug-administered group - average OD value of the DMSO group) / (average OD value of the positive drug group - average OD value of the DMSO group) × 100
Graphpad software was used to fit the concentration-effect curve, and EC50 was calculated. The test results are shown in Table 15 (A denotes < 250 nM, B denotes 250 nM-1 µM, C denotes 1 µM-2 µM, D denotes > 2 µM, and - denotes not listed or not tested): Table 15
On the technique in general: In a reporter assay the amount or activity of a reporter protein is the signal.
`CCCN(CCO)C(=O)C1=Cc2ccc(C3(C(=O)Nc4cnc5c(c4)CN(C(=O)CNC(=O)[C@H](Cc4ccccc4)NC(=O)CNC(=O)CNC(=O)CCCCCN4C(=O)C=CC4=O)CC5)CC3)cc2N=C(N)C1`: the EC50 (commonly the midpoint of the concentration-response curve) lay in the range of 250 to 1000 nM. The value for `CCCN(CCOP(=O)(N[C@@H](C)C(=O)OCc1ccccc1)Oc1ccccc1)C(=O)C1=Cc2ccc(C3(C(=O)Nc4cnc5c(c4)CNCC5)CC3)cc2N=C(N)C1` (single isomer, unassigned) [Compound 25-1] was below 250 nM; that for `CCCN(CCO)C(=O)C1=Cc2ccc(C3(C(=O)Nc4cnc5c(c4)CN(C(=O)C4COC(CN6C(=O)C=CC6=O)OC4)CC5)CC3)cc2N=C(N)C1` (single isomer, unassigned) [II-77, 2-amino-8-(1-((6-(2-((2,5-dioxo-2,5-dihydro-1H-pyrrol-1-yl)methyl)-1,3-dioxan-5-carbonyl)-5,6,7,8-tetrahydro-1,6-naphthyridin-3-yl)carbamoyl)cyclopropyl)-N-(2-hydroxyethyl)-N-propyl-3H-benzo[b]azepine-4-formamide] was 250 to 1000 nM. The value for `CCCN(CCO)C(=O)C1=Cc2c(F)cc(C3(C(=O)Nc4cncc(CN)c4)CC3)cc2N=C(N)C1` [Compound 12, 2-amino-8-(1-((5-(aminomethyl)pyridin-3-yl)carbamoyl)cyclopropyl)-6-fluoro-N-(2-hydroxyethyl)-N-propyl-3H-benzo[b]azepine-4-formamide] was below 250 nM; that for `CCCN(CCC)C(=O)C1=Cc2c(F)cc(C3(C(=O)Nc4cncc(CN)c4)CC3)cc2N=C(N)C1` [Compound 13, 2-amino-8-(1-((5-(aminomethyl)pyridin-3-yl)carbamoyl)cyclopropyl)-6-fluoro-N,N-dipropyl-3H-benzo[b]azepine-4-formamide] was below 250 nM. The value for `CCCN(CCC)C(=O)C1=Cc2ccc(C3(C(=O)Nc4ccc5c(c4)CNCC5)CC3)cc2N=C(N)C1` [Compound 15, 2-amino-N,N-dipropyl-8-(1-((1,2,3,4-tetrahydroisoquinolin-7-yl)carbamoyl)cyclopropyl)-3H-benzo[b]azepine-4-formamide] was below 250 nM; that for `CCCN(CCC)C(=O)C1=Cc2ccc(C3(C(=O)Nc4cncc(CN)c4)CC3)cc2N=C(N)C1` [Compound 16] was below 250 nM.

`CCCN(CCO)C(=O)C1=Cc2ccc(C3(C(=O)NCc4ccc(N)cc4)CC3)cc2N=C(N)C1` [Compound 17, 2-amino-8-(1-((4-aminobenzyl)carbamoyl)cyclopropyl)-N-(2-hydroxyethyl)-N-propyl-3H-benzo[b]azepine-4-formamide] showed an EC50 below 250 nM. The value for `CCCN(CCO)C(=O)C1=Cc2ccc(C3(C(=O)NCc4cccc(N)c4)CC3)cc2N=C(N)C1` [Compound 18, 2-amino-8-(1-((3-aminobenzyl)carbamoyl)cyclopropyl)-N-(2-hydroxyethyl)-N-propyl-3H-benzo[b]azepine-4-formamide] was below 250 nM. The result for `CCCN(CCO)C(=O)C1=Cc2ccc(C3(C(=O)Nc4cccc(N)c4)CC3)cc2N=C(N)C1` [Compound 19, 2-amino-8-(1-((3-aminophenyl)carbamoyl)cyclopropyl)-N-(2-hydroxyethyl)-N-propyl-3H-benzo[b]azepine-4-formamide] reads below 250 nM. The value for `CCCN(CCO)C(=O)C1=Cc2ccc(C3(C(=O)Nc4cncc(N)c4)CC3)cc2N=C(N)C1` [Compound 20, 2-amino-8-(1-((5-aminopyridin-3-yl)carbamoyl)cyclopropyl)-N-(2-hydroxyethyl)-N-propyl-3H-benzo[b]azepine-4-formamide] was 250 to 1000 nM. Molecule `CCCN(CCO)C(=O)C1=Cc2ccc(C3(C(=O)NCc4cncc(N)c4)CC3)cc2N=C(N)C1` [Compound 22, 2-amino-8-(1-(((5-aminopyridin-3-yl)methyl)carbamoyl)cyclopropyl)-N-(2-hydroxyethyl)-N-propyl-3H-benzo[b]azepine-4-formamide] showed a 50% effective concentration (EC50) of 250 to 1000 nM. The result for `CCCN(OCC)C(=O)C1=Cc2ccc(C3(C(=O)Nc4cnc5c(c4)CNCC5)CC3)cc2N=C(N)C1` [Compound 23, 2-amino-N-ethoxy-N-propyl-8-(1-((5,6,7,8-tetrahydro-1,6-naphthyridin-3-yl)carbamoyl)cyclopropyl)-3H-benzo[b]azepine-4-formamide] reads below 250 nM; that for `CCCN(CCO)C(=O)C1=Cc2ccc(C3(C(=O)Nc4cnc5c(c4)CN(C(=O)[C@H](CCCNC(N)=O)NC(=O)[C@@H](N)C(C)C)CC5)CC3)cc2N=C(N)C1` [Example 33, 2-amino-8-(1-((6-((S)-2-((S)-2-amino-3-methylbutanoylamino)-5-ureidopentanoyl)-5,6,7,8-tetrahydro-1,6-naphthyridin-3-yl)carbamoyl)cyclopropyl)-N-(2-hydroxyethyl)-N-propyl-3H-benzo[b]azepine-4-formamide], below 250 nM; that for `CCCN(CCO)C(=O)C1=Cc2ccc(C3(C(=O)Nc4cnc5c(c4)CN(C(=O)CCOCCOCCNC(=O)CCN4C(=O)C=CC4=O)CC5)CC3)cc2N=C(N)C1` [II-7, 2-amino-8-(1-((6-(3-(2-(2-(3-(2,5-dioxo-2,5-dihydro-1H-pyrrol-1-yl)propionylamino)ethoxy)ethoxy)propionyl)-5,6,7,8-tetrahydro-1,6-naphthyridin-3-yl)carbamoyl)cyclopropyl)-N-(2-hydroxyethyl)-N-propyl-3H-benzo[b]azepine-4-formamide], 250 to 1000 nM. The result for `CCCN(CCO)C(=O)C1=Cc2ccc(C3(C(=O)Nc4cnc5c(c4)CN(C(=O)CCOCCOCCOCCOCCOCCOCCNC(=O)CCN4C(=O)C=CC4=O)CC5)CC3)cc2N=C(N)C1` [II-12, 2-amino-8-(1-((6-(1-(2,5-dioxo-2,5-dihydro-1H-pyrrol-1-yl)-3-oxo-7,10,13,16,19,22-hexaoxa-4-azapentacosan-25-acyl)-5,6,7,8-tetrahydro-1,6-naphthyridin-3-yl)carbamoyl)cyclopropyl)-N-(2-hydroxyethyl)-N-propyl-3H-benzo[b]azepine-4-formamide] reads 250 to 1000 nM. As to `CCCN(CCO)C(=O)C1=Cc2ccc(C3(C(=O)Nc4cnc5c(c4)CN(C(=O)CCOCCOCCNC(=O)[C@H](CCCNC(N)=O)NC(=O)[C@@H](NC(=O)CCCCCN4C(=O)C=CC4=O)C(C)C)CC5)CC3)cc2N=C(N)C1` [II-17, 2-amino-8-(1-((6-((12S,15S)-22-(2,5-dioxo-2,5-dihydro-1H-pyrrol-1-yl)-15-isopropyl-11,14,17-trioxo-12-(3-ureidopropyl)-4,7-dioxa-10,13,16-triazabehenoyl)-5,6,7,8-tetrahydro-1,6-naphthyridin-3-yl)carbamoyl)cyclopropyl)-N-(2-hydroxyethyl)-N-propyl-3H-benzo[b]azepine-4-formamide], the EC50 lay within 250 to 1000 nM.

For the origin of these results see patent EP4596536A1 (Shanghai de Novo Pharmatech Co., Ltd., priority 2022, dated 2024).
